Measurements reported in patent publication US20080268072A1, “Method of Improving Anticancer Effect of Pulsatillae Radix and a Composition Prepared by the Method” (Song-Bae Kim, priority 2004, published 2008).

Legend:
tumor = test: Antitumor activity (test not specified)
LL/2 cancer = settings: BDF1 mouse; cited from earlier work
NCI-H23 cell line = settings: comparison with adriamicine; cited from earlier work

Compound	antitumor activity (tumor)	inhibition effect against LL/2 cancer (LL/2 cancer) [%]	activity against NCI-H23 cell line compared with adriamicine (NCI-H23 cell line)
3-0-[0-α-L-rhamnopyranosyl-(1→2)-[0-β-D-glucopyranosyl-(1→4)]-α-L-arabinopyranosyl]hederagenin 28-0-α-L-rhamnopyranosyl-(1→4-[0-β-D-glucopyranosyl-(1→6]-β-D-glucopyranosyl ester [SB 365-0]	no antitumor activity	–	–
CC1OC(OC2C(O[C@H]3CC[C@@]4(C)C(CC[C@]5(C)C4CC=C4C6CC(C)(C)CC[C@]6(C(=O)O)CC[C@]45C)[C@]3(C)CO)OCC(OC3OC(CO)C(O)C(O)C3O)C2O)C(O)C(O)C1O (stereo partly drawn) [SB365, 3-0-[0-α-L-rhamnopyranosyl-(1→2)-[0-β-D-glucopyranosyl-(1→4)]-α-L-arabinopyranosyl]hederagenin]	–	80	more strong activity
